Experimental data: patent US11466007B2, “Substituted lactams showing serotonin 5-HT receptor activity” (Sumitomo Pharma Co., Ltd., priority 2018, dated 2022)
Like-named read-outs stand apart in the source and are kept apart here.

Columns and labels:
human D2 receptor = human D2 receptor (Homo sapiens (Human), UniProt P14416); assay: Test 1: binding activity for human D2 receptor ([3H]Spiperone); details: for D2 Ki/5-HT1A Ki: ratio of D2 Ki to 5-HT1A Ki; for Ki: CHO cell membrane fraction, [3H]Spiperone; for D2 Ki/5-HT2A Ki: ratio of D2 Ki to 5-HT2A Ki
Chain of human D2 receptor (P14416 whole entry): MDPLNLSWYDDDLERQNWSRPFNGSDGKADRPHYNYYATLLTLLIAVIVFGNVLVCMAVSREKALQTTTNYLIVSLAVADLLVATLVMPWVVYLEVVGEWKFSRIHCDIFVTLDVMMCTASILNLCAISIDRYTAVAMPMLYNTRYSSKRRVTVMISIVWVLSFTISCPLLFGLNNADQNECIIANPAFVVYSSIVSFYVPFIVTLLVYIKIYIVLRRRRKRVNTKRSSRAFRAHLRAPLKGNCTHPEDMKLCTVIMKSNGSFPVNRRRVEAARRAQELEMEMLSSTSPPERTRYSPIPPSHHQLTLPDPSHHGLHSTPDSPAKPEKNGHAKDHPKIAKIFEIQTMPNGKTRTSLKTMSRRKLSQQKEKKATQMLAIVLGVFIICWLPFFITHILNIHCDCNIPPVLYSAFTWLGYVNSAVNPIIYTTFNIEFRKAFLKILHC
Procedure: (§1) Test 1: Evaluation of Binding Activity for Human 5-HT1A Receptor, Human 5-HT2A Receptor, and Human D2 Receptor
(§2) Binding affinity of the present compound for human 5-HT1A receptor, human 5-HT2A receptor, and human D2 receptor was measured by the following procedures.
(§3) Each mixture was incubated at room temperature for 60 minutes. Then, the mixture was added quickly on a glassfiber filter plate (Multiscreen FB, Millipore, Inc.) coated with 0.3% aqueous polyethylenimine, and vacuum-filtered. Radioactivity remaining on the filter was measured with a liquid scintillation counter (PerkinElmer, Inc.). Binding inhibition rate was calculated from the following formula.
(§4) Ki of each compound was calculated from the following formula. Binding inhibition constant (Ki)=IC50/(1+S/Kd) wherein S is concentration of ligand; Kd is a binding dissociation constant of ligand to membrane, which is calculated from a saturated binding experiment conducted with the same cell membrane. A small Ki value means strong binding ability to a receptor.

P-gp (MDR1) = P-gp (MDR1) (Homo sapiens (Human), UniProt P08183); assay: Test 9: P-gp substrate property (NFR, MDCKII and MDR1-MDCKII cells); assay type: in vitro ADME; details: ratio of Papp B-A/Papp A-B in MDR1-MDCKII cells to that in MDCKII cells
Chain of P-gp (MDR1) (P08183 whole entry, species assumed): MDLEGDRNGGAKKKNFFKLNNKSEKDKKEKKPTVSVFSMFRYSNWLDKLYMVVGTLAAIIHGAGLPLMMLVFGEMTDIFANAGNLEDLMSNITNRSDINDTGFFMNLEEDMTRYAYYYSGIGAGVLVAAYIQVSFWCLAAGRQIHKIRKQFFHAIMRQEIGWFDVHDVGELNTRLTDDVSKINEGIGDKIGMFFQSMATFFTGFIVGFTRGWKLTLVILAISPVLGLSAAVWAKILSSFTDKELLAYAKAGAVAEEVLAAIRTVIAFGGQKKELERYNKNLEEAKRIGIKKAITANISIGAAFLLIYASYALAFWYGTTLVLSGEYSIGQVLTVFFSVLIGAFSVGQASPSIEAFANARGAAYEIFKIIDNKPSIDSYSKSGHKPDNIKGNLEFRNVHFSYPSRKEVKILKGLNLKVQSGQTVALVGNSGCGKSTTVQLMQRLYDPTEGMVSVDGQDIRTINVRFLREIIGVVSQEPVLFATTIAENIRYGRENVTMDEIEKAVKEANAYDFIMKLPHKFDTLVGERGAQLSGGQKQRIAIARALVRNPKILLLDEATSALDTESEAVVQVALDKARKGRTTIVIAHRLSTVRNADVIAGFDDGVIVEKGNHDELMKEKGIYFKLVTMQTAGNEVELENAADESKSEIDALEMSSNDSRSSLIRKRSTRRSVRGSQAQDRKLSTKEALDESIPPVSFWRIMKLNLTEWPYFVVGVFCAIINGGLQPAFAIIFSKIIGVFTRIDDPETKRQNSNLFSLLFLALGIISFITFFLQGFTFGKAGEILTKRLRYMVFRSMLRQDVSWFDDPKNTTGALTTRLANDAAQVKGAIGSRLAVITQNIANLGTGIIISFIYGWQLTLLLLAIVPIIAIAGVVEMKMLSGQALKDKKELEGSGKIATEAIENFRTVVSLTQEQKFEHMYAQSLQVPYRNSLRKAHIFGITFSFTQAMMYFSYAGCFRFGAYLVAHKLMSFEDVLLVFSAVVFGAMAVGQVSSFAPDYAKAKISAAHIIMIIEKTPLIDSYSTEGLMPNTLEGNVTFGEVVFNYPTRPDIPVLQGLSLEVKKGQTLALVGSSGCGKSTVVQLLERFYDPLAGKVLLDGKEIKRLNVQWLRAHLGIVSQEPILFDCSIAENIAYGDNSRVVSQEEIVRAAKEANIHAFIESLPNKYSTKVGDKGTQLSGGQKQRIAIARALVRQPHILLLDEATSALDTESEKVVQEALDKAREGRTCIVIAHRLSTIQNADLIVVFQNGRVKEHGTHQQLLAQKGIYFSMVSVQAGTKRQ
Procedure: Evaluation test for binding was carried out as follows with the CHO cell membrane fraction in which human target receptor was expressed. […] Each mixture was incubated at room temperature, added quickly on a glassfiber filter plate (Multiscreen FB, Millipore, Inc.), and vacuum-filtered. Radioactivity remaining on the filter was measured with a liquid scintillation counter (PerkinElmer, Inc.). Binding inhibition rate was calculated from the following formula.
NFR (Net Flux Ratio), which is an index of P-gp substrate property, can be calculated as follows. MDCKII (Madin-Darby canine kidney strain II) cells and MDR1-MDCKII cells in which MDR1 (multidrug resistance protein 1) was overexpressed were used to measure an apparent permeability coefficient (Papp A-B) from lumen (A) to basement membrane (B) and an apparent permeability coefficient (Papp B-A) from basement membrane (B) to lumen (A) of both MDCKII cells and MDR1-MDCKII cells. NFR (Net Flux Ratio) was calculated from the ratio between Ratio (Papp B-A/Papp A-B) of an apparent permeability coefficient of MDR1-MDCKII cells and Ratio of an apparent permeability coefficient of MDCKII cells.

human 5-HT2A receptor [1] = biological target: T1, human 5-HT2A receptor (Homo sapiens (Human), UniProt P28223); assay: Test 1: binding activity for human 5-HT2A receptor ([3H]Ketanserin); details: CHO cell membrane fraction
T1 sequence (P28223 whole entry): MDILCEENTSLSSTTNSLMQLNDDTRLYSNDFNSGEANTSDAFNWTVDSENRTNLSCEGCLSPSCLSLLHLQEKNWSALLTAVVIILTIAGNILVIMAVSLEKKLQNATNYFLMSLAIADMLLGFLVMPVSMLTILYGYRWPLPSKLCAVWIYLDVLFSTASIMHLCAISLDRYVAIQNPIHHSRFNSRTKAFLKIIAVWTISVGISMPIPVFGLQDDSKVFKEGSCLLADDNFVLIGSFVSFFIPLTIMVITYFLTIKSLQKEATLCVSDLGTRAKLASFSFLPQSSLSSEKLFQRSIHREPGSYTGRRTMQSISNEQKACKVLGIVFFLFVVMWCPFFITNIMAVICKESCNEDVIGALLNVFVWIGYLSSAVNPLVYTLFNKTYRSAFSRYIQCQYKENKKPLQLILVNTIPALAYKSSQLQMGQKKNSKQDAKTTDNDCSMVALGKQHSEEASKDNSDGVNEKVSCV
Procedure: as §1, §2, §3, §4

human 5-HT1A receptor [2] = biological target: T2, human 5-HT1A receptor (Homo sapiens (Human), UniProt P08908); assay: Test 2: agonist activity for human 5-HT1A receptor ([35S]GTPγS binding); assay type: biochemical; details: for EC50: [35S]GTPγS binding, CHO cell membrane fraction expressing human 5-HT1A receptor
T2 sequence (P08908 whole entry): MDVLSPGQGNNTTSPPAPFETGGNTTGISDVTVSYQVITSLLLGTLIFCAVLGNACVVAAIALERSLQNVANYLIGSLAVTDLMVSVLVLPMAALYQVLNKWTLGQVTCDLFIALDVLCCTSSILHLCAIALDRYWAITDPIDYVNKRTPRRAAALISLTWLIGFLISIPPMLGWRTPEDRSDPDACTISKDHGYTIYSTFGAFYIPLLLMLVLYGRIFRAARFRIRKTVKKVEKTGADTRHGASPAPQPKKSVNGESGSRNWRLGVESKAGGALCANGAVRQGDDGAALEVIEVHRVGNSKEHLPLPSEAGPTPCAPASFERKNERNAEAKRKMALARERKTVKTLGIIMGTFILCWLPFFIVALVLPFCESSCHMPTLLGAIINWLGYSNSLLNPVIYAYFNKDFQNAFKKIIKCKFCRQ
Procedure: Test 2: Evaluation of Agonist Activity for Human 5-HT1A Receptor
CHO cell membrane fraction in which human 5-HT1A receptor was expressed as used in Test 1 was purchased. To a buffer containing guanosine diphosphate were added a test compound dissolved in DMSO, each receptor membrane sample diluted with buffer, and [^35S] Guanosine 5′-O-[gamma-thio]triphosphate (GTPγS). The mixture was incubated at room temperature for 60 minutes. Then, the mixture was added quickly on a glassfiber filter plate (Multiscreen FB, Millipore, Inc.), and vacuum-filtered. Radioactivity remaining on the […] was measured with a liquid scintillation counter. Agonist activity was calculated from the following formula.

human 5-HT1A receptor [3] = biological target: T2, human 5-HT1A receptor; assay: Test 1: binding activity for human 5-HT1A receptor ([3H]8-OH-DPAT); details: CHO cell membrane fraction
Procedure: as §1, §2, §3
as §4, with “IC50 value was calculated by Hill analysis (Physiology, 1910, 40, 190-200). Ki of” for “Ki of”

[4] = Test 4: metabolic stability test in human hepatic microsome; assay type: in vitro ADME; details: 0.1 mg/mL microsome, 0.1 μmol/L compound, NADPH, 37° C., 30 minutes
Procedure: Test 4: Metabolic Stability Test in Human Hepatic Microsome
The stability of the present compound in human hepatic microsome metabolism was evaluated as mentioned below. Human hepatic microsome was obtained from Xenontech. Human hepatic microsome, NADPH, and each test compound were mixed in 25 mmol/L phosphate buffer solution (pH 7.4) to reach the following concentrations as shown below, and the mixture was incubated at 37° C. for 30 minutes. • Human hepatic microsome: 0.1 mg/mL • NAPDH: 3.2 mmol/L • Test compound: 0.1 μmol/L
The residual ratio of the test compound in each sample after 30 minutes was measured by LC-MS, and the metabolic stability in human hepatic microsome was calculated from the following formula. Metabolic stability in human hepatic microsome (mL/min/mg protein)=−LN(residual ratio)/30/0.1

human 5-HT2A receptor [5] = biological target: T1, human 5-HT2A receptor; assay: Test 3: antagonist activity for human 5-HT2A receptor (aequorin luminescence, CHO-K1 cells); assay type: cell-based
Procedure: Test 3: Evaluation of Antagonist Activity for Human 5-HT2A Receptor
Aequorin, Gα16 protein, and each receptor were transiently expressed in CHO-K1 cells (Chinese hamster ovary). […] Each compound dissolved in DMSO was added thereto, and changes in luminescence were measured by FDSS/μCELL functional drug screening system (Hamamatsu Photonics K.K.). Antagonist activity was calculated from the following formula.
Antagonist activity (%)=100×{(Luminescence of well in the presence of 1 nmol/L 5-HT−Luminescence of well containing solvent)−(Luminescence of well in the presence of test compound and 1 nmol/L 5-HT−Luminescence of well containing solvent)}/(Luminescence of well in the presence of 1 nmol/L 5-HT−Luminescence of well containing solvent)

hERG channel = hERG channel (Homo sapiens (Human), UniProt Q12809); assay: Test 6-1: inhibitory activity for hERG channel (auto patch clamp, Qpatch); assay type: cell-based; details: for IC50: hERG-CHO cells, whole cell patch clamp, Qpatch, read-out: hERG inhibition IC50
Chain of hERG channel (Q12809 whole entry): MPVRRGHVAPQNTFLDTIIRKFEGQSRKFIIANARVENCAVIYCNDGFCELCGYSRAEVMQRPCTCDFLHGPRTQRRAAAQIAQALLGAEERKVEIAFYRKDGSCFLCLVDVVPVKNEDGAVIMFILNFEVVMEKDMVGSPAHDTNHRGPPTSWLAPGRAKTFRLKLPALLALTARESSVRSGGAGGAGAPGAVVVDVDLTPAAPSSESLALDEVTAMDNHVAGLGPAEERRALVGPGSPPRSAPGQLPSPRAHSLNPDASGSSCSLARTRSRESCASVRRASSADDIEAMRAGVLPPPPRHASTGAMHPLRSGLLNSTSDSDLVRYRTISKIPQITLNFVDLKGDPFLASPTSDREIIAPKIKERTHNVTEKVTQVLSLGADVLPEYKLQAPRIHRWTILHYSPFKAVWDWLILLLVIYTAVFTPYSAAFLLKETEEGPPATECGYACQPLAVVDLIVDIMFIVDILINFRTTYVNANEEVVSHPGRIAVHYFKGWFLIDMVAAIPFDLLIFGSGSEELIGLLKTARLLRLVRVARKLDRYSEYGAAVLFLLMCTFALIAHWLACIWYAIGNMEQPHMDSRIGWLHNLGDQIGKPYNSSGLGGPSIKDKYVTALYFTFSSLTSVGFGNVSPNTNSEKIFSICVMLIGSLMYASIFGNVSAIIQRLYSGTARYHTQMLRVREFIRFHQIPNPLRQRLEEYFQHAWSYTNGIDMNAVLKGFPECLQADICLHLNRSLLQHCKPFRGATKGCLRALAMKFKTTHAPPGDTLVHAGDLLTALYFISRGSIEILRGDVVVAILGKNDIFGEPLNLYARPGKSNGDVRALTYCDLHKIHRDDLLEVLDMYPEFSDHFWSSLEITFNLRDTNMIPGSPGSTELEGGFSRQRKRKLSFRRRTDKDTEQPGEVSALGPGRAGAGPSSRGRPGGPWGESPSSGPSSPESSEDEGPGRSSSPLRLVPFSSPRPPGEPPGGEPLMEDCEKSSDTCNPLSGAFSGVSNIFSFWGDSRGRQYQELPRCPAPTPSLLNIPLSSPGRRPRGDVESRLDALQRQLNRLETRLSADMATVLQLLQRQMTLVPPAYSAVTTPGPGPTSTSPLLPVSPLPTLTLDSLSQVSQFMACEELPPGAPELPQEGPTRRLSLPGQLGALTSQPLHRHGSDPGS
Procedure: Test 6-1: Evaluation of Inhibitory Activity for hERG Channel
Inhibitory activity of the present compound for hERG channel was measured by whole cell patch clamp method with an auto patch clamp system using CHO cells in which hERG channel involved in human rapidly activating delayed rectifier potassium current (IKr) was forcibly expressed.
hERG-CHO cells purchased from ChanTest Cop. were cultured in a CO2 incubator at 37° C., and dissociated from a flask with trypsin shortly before the measurement of hERG current, to prepare a cell suspension.
Extracellular and intracellular fluid used in the measurement were prepared as follows.
Extracellular fluid: 2 mmol/L CaCl2, 1 mmol/L MgCl2, 10 mmol/L HEPES, 4 mmol/L KCl, 145 mmol/L NaCl, 10 mmol/L Glucose
Intracellular fluid: 5.4 mmol/L CaCl2, 1.8 mmol/L MgCl2, 10 mmol/L HEPES, 31 mmol/L KOH, 10 mmol/L EGTA, 120 mmol/L KCl, 4 mmol/L Na2-ATP
Test compound solution: Test compound was dissolved in DMSO to reach the concentration of 2 mmol/L or 20 mmol/L, in order to prepare a test compound solution. […] (Measurement of Current Value and Data Analysis)
The cell suspension, the extracellular fluid, the intracellular fluid, and the measurement plate were set in the auto patch clamp system, and hERG current was measured by whole cell patch clamp method. […] Each pulse interval was 15 seconds. The data analysis was carried out with Qpatch Assay Software (Biolin Scientific). The test was carried out by applying incrementally 4 concentrations of each test compound, and the average of the maximum peak tail currents which were obtained from the last 3 stimulations in each concentration was determined as the evaluated data. Based on the current inhibition rate for a pre-applied current at each concentration of each test compound, IC50 value was calculated by Hill equation with the software.

[6] = Test 10: intracerebral transferability of rats (Kp,uu,brain); assay type: in vivo, SD or WKY rats; details: rat, brain and plasma, unbound drug concentration ratio brain/plasma, s.c. or oral, 0.5, 1 or 2 hours
Procedure: Test 10: Evaluation of Intracerebral Transferability (Test for Intracerebral Transferability of Rats)
In this test, intracerebral transferability of the present compounds was evaluated by the following method. The present compounds were subcutaneously administered as a solution in saline, or orally administered as a suspension in methyl cellulose to 7-week-old SD or WKY rats. Plasma and brain were collected on 0.5 hours, 1 hour, or 2 hours after the administration to measure the drug concentrations in plasma and brain by LC-MS.
Binding rates of the present compound to plasma and brain protein were measured by equilibrium dialysis method.
Kp,uu,brain (unbound drug concentration ratio between brain/plasma) can be calculated by applying the compound concentrations in plasma and brain and the binding rates to plasma and brain protein obtained from the above test into the following formula. Kp,uu,brain=(Compound concentration in brain×(100−Binding rate to brain protein (%))/100)/(Compound concentration in plasma×(100−Binding rate to plasma protein (%))/100)

[7] = agonist activity in the presence of 10 μM compound, relative to 100 μmol/L 5-HT

SMILES | NFR (Net Flux Ratio) (P-gp (MDR1)) | Ki (human D2 receptor) | Ki (human 5-HT1A receptor [3]) | Metabolic stability in human hepatic microsome [4] | Emax at 10 µM (human 5-HT1A receptor [2]; [7]) | further results
Cc1ccc2c(C3CCN(CCn4ccc5cccnc5c4=O)CC3)noc2c1 [Example 118] | – | 276 nM | 73.1 nM | – | 5% | D2 Ki/5-HT1A Ki (human D2 receptor): 3.8; D2 Ki/5-HT2A Ki (human D2 receptor): 27.6; Ki (human 5-HT2A receptor [1]): 10 nM
COc1ccc2c(n1)C(=O)N(CCN1CCC(c3noc4ccccc34)CC1)CC2 [Example 187] | – | – | 1.59 nM | <0.05 mL/min/mg protein | 55% | Ki (human 5-HT2A receptor [1]): 14.5 nM; EC50 (human 5-HT1A receptor [2]): 38.2 nM; IC50 (human 5-HT2A receptor [5]; CHO-K1 cells, aequorin/Gα16, 1 nmol/L 5-HT): 89.7 nM
O=C1c2cnccc2CCN1CCN1CCC(c2noc3ccccc23)CC1 [Example 13] | – | – | – | <0.01 mL/min/mg protein | 56% | Ki (human 5-HT2A receptor [1]): 8.4 nM
COc1ncc2c(n1)CCN(CCN1CCN(c3noc4ccccc34)CC1)C2=O [Example 179] | – | > 10000 nM | 283 nM | <0.05 mL/min/mg protein | – | IC50 (hERG channel): > 10 µM; hERG inhibition IC50 (nmol/L)/5-HT1A Ki (nmol/L) (hERG channel; ratio of hERG IC50 to 5-HT1A Ki): >35; hERG inhibition IC50 (nmol/L)/5-HT2A Ki (nmol/L) (hERG channel; ratio of hERG IC50 to 5-HT2A Ki): >438; D2 Ki/5-HT1A Ki (human D2 receptor): >35.3; D2 Ki/5-HT2A Ki (human D2 receptor): >437.6; Ki (human 5-HT2A receptor [1]): 22.9 nM
O=C1c2ncccc2CCN1CCN1CCC(c2noc3cc(F)c(F)cc23)CC1 [Example 148] | – | – | – | – | – | 5-HT2A antagonist activity (human 5-HT2A receptor [5]; at 10 μM): 45% at 10 μM
Cc1nc2c(o1)C(=O)N(CCN1CCC(c3noc4ccccc34)CC1)CC2 [Example 35, 5-{2-[4-(1,2-Benzoisoxazol-3-yl)piperidin-1-yl]ethyl}-2-methyl-6,7-dihydro[1,3]oxazolo[5,4-c]pyridin-4(5H)-one] | – | – | – | <0.01 mL/min/mg protein | – | Kp uu at 2 h [6]: 1.44
COc1cc2c(cn1)C(=O)N(CCN1CCC(c3noc4ccccc34)CC1)CC2 [Example 20] | – | 1890 nM | 0.77 nM | 0.091 mL/min/mg protein | – | 5-HT1A agonist activity Emax (human 5-HT1A receptor [2]; [7]): 52%
O=C1c2nc(Cl)ccc2CCN1CCN1CCC(c2noc3ccccc23)CC1 [Example 146] | 2.3 | – | – | <0.05 mL/min/mg protein | – | –
Cc1cc2c(cn1)C(=O)N(CCN1CCC(c3noc4ccccc34)CC1)CC21CC1 [Example 21] | – | 2120 nM | 8.62 nM | 0.323 mL/min/mg protein | 59% | IC50 (hERG channel; human, CHO cells expressing hERG channel): 8 µM
CCc1ccc2c(n1)C(=O)N(CCN1CCC(c3noc4ccccc34)CC1)CC2 [Example 185] | 2.4 | – | – | <0.05 mL/min/mg protein | – | –

Continued, in another order:

NFR (Net Flux Ratio) (P-gp (MDR1)) | Ki (human D2 receptor) | Ki (human 5-HT1A receptor [3]) | Metabolic stability in human hepatic microsome [4] | SMILES | Emax at 10 µM (human 5-HT1A receptor [2]; [7]) | further results
1.1 | – | – | – | Cn1ncc2c1C(=O)N(CCN1CCN(c3nsc4ccccc34)CC1)CC2 [Example 59] | – | D2 Ki/5-HT1A Ki (human D2 receptor): 63
– | 1280 nM | 16.5 nM | 0.095 mL/min/mg protein | COc1ccc2c(n1)C(=O)N(CCN1CCN(c3noc4ccccc34)CC1)CC2 [Example 186] | 39% | IC50 (hERG channel): 2 µM; EC50 (human 5-HT1A receptor [2]): 97 nM
6.6 | – | – | <0.01 mL/min/mg protein | Cn1cnc2c1CCN(CCN1CCN(c3nsc4ccccc34)CC1)C2=O [Example 54] | – | –
1.8 | – | – | 0.085 mL/min/mg protein | Cn1cc2c(n1)CCN(CCN1CCN(c3nsc4ccccc34)CC1)C2=O [Example 36, 5-{2-[4-(1,2-Benzoisothiazol-3-yl)piperazin-1-yl]ethyl}-2-methyl-2,5,6,7-tetrahydro-4H-pyrazolo[4,3-c]pyridin-4-one] | – | Kp uu at 2 h [6]: 0.08
1.5 | – | – | 0.018 mL/min/mg protein | Cn1ccc2c1CCN(CCN1CCC(c3noc4ccccc34)CC1)C2=O [Example 60] | – | D2 Ki/5-HT1A Ki (human D2 receptor): 19
– | 360 nM | 10.4 nM | – | Cn1nc(Br)c2c1CCN(CCN1CCN(c3nsc4ccccc34)CC1)C2=O [Example 69] | 45% | –
2.2 | – | – | <0.01 mL/min/mg protein | Cn1ncc2c1CCCN(CCN1CCC(c3noc4ccccc34)CC1)C2=O [Example 43] | – | Kp uu at 2 h [6]: 0.18
